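In this assay, cells in 96-well plates receive the compound at five concentrations for 48 hours. Endpoints are linearly interpolated between the surrounding concentrations. The concentration for 50% growth inhibition is given as GI50.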 Activity calls are given as the source filed them. No stated cut-off is given here; in the data, active = GI50 up to about 1.1 µM and inactive = higher.
How the values were obtained:
Assay in all cases: NCI anticancer screen, dose series, 48 h
TK-10 = system: TK-10
NCI/ADR-RES = system: NCI/ADR-RES
HL-60 = system: HL-60
MOLT-4 = system: MOLT-4
SW-620 = system: SW-620
UACC-62 = system: UACC-62
ACHN = system: ACHN
HT-29 = system: HT-29
A549 = system: A549
M14 = system: M14
MDA-N = system: MDA-N
MDA-MB-231 = system: MDA-MB-231
COLO 205 = system: COLO 205
SF-539 = system: SF-539
SK-MEL-5 = system: SK-MEL-5
786-0 = system: 786-0
Malme-3M = system: Malme-3M
SNB-75 = system: SNB-75
NCI-H226 = system: NCI-H226

Measured: GI50

Nc1nc(Nc2ccccc2)c2[nH]cnc2n1
inactive: TK-10 46.9 µM | NCI/ADR-RES > 100 µM | HL-60 37.3 µM | MOLT-4 38.9 µM | SW-620 > 100 µM | UACC-62 33.3 µM | ACHN 41.9 µM | HT-29 63.7 µM | A549 > 100 µM | M14 > 100 µM | MDA-N 47.8 µM | MDA-MB-231 > 100 µM | COLO 205 89.9 µM | SF-539 > 100 µM | SK-MEL-5 86.5 µM | 786-0 > 100 µM | Malme-3M 30.6 µM | SNB-75 9.57 µM | NCI-H226 40.6 µM

Oc1ccc(/C=N/NC(=S)Nc2cccnc2)nc1
inactive: NCI/ADR-RES 2.46 µM | HL-60 3.76 µM | MOLT-4 2.8 µM | SW-620 4.82 µM | UACC-62 6.97 µM | ACHN 4.76 µM | HT-29 5.33 µM | A549 38.3 µM | M14 6.1 µM | MDA-N 13.4 µM | MDA-MB-231 2.32 µM | COLO 205 3.98 µM | SF-539 4.49 µM | SK-MEL-5 9.59 µM | 786-0 8.43 µM | Malme-3M 2.07 µM | SNB-75 19.6 µM | NCI-H226 33.3 µM

CCOC(=O)c1cc(I)c(-c2cc(C)no2)n1C
inactive: TK-10 > 100 µM | NCI/ADR-RES 36.2 µM | HL-60 26.1 µM | MOLT-4 21.2 µM | SW-620 60.7 µM | UACC-62 59 µM | ACHN 48.3 µM | HT-29 74.1 µM | A549 61.7 µM | M14 94 µM | MDA-N 43.9 µM | MDA-MB-231 36 µM | COLO 205 42.4 µM | SF-539 > 100 µM | SK-MEL-5 33.1 µM | 786-0 43.5 µM | Malme-3M 28.1 µM | SNB-75 49.8 µM | NCI-H226 > 100 µM

CO[P@]1(=O)O[C@@H](c2ccccc2)[C@H](O)[C@@]1(O)c1ccccc1
inactive: TK-10 > 100 µM | NCI/ADR-RES > 100 µM | HL-60 > 100 µM | MOLT-4 > 100 µM | SW-620 > 100 µM | UACC-62 > 100 µM | ACHN > 100 µM | HT-29 > 100 µM | A549 > 100 µM | M14 > 100 µM | MDA-N > 100 µM | MDA-MB-231 > 100 µM | COLO 205 > 100 µM | SF-539 > 100 µM | SK-MEL-5 > 100 µM | 786-0 > 100 µM | Malme-3M > 100 µM | SNB-75 > 100 µM | NCI-H226 > 100 µM

Reference: ChEMBL document CHEMBL1201862, “PubChem BioAssay data set” (2004)
